Data: ChEMBL document CHEMBL1157122, “The contribution of a 2-amino group on receptor tyrosine kinase inhibition and antiangiogenic activity in 4-anilinosubstituted pyrrolo[2,3-d]pyrimidines” (Bioorg Med Chem Lett, 2010)

Key:
[1] = molecular target: Platelet-derived growth factor receptor beta (Homo sapiens, UniProt P09619); test: Inhibition of PDGFRbeta
[2] = molecular target: T1, Epidermal growth factor receptor (Homo sapiens, UniProt P00533); test: cell-based
[3] = molecular target: Vascular endothelial growth factor receptor 1 (Homo sapiens, UniProt P17948); test: cell-based
[4] = molecular target: T2, Vascular endothelial growth factor receptor 2 (Homo sapiens, UniProt P35968); test: cell-based
[5] = system: A-431; test: cells; conditions: Homo sapiens
[6] = molecular target: T1, Epidermal growth factor receptor
[7] = molecular target: T2, Vascular endothelial growth factor receptor 2
[8] = system: chorioallantoic membrane (Gallus gallus); test: cells; conditions: Homo sapiens, A-431

Chain of Platelet-derived growth factor receptor beta (P09619 whole entry): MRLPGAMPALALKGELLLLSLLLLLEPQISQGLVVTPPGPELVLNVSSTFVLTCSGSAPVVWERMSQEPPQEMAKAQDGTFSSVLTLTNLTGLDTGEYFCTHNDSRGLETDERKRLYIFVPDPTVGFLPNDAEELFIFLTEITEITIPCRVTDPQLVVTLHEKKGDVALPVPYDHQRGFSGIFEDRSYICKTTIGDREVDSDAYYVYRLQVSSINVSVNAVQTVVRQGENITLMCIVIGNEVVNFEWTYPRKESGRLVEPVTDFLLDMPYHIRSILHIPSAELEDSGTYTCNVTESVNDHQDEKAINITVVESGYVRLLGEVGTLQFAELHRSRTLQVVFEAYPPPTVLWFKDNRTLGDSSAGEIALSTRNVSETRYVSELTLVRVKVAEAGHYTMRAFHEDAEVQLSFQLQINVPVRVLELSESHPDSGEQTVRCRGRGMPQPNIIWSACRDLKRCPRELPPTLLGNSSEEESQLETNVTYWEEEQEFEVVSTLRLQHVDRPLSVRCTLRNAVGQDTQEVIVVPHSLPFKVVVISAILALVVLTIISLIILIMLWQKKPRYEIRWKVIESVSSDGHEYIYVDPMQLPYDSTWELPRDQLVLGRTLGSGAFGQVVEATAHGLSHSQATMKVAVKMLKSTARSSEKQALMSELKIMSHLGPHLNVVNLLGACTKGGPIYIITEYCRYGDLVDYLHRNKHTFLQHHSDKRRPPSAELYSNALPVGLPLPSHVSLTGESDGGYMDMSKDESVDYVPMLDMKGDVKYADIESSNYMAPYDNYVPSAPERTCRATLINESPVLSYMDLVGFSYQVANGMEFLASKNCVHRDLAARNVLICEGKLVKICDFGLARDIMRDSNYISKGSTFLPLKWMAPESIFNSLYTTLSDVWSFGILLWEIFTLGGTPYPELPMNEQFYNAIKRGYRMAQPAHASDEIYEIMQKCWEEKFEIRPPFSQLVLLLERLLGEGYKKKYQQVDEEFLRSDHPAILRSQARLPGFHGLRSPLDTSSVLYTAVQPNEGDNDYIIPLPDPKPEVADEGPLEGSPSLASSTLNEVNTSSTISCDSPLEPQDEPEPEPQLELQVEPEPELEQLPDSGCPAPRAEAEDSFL
T2 sequence (P35968 whole entry): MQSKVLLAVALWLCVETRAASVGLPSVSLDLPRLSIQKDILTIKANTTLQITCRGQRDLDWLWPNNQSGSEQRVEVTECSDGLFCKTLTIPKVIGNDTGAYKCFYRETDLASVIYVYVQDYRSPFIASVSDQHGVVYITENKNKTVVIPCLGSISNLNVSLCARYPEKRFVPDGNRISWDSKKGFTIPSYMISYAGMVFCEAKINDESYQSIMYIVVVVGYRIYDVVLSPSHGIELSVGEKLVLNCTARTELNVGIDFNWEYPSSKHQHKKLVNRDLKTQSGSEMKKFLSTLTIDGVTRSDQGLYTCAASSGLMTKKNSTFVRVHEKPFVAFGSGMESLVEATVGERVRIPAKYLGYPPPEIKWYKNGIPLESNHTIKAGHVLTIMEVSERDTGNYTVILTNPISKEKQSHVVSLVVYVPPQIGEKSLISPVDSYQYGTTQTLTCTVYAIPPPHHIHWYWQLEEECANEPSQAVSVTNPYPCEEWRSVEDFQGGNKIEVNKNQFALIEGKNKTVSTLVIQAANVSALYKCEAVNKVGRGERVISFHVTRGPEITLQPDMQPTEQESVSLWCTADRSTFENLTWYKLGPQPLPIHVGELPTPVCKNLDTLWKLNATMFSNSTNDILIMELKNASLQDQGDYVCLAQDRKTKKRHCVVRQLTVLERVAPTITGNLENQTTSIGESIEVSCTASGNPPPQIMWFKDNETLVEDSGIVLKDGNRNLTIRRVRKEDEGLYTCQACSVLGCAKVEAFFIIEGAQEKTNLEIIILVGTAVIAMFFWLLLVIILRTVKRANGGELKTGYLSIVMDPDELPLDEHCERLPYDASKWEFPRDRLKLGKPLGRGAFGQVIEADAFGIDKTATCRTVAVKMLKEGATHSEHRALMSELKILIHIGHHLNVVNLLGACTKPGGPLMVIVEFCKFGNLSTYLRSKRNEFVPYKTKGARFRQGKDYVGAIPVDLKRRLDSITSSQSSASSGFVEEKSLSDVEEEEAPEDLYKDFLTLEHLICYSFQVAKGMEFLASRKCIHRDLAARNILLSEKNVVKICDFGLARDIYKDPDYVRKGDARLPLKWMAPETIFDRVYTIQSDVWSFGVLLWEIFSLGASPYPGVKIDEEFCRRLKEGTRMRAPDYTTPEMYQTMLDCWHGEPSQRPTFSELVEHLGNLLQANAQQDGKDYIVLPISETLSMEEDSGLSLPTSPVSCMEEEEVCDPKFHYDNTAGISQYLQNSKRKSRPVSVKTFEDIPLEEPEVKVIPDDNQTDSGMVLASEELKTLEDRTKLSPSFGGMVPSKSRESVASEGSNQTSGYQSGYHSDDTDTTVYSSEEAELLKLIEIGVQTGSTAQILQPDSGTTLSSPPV
Chain of Vascular endothelial growth factor receptor 1 (P17948 whole entry): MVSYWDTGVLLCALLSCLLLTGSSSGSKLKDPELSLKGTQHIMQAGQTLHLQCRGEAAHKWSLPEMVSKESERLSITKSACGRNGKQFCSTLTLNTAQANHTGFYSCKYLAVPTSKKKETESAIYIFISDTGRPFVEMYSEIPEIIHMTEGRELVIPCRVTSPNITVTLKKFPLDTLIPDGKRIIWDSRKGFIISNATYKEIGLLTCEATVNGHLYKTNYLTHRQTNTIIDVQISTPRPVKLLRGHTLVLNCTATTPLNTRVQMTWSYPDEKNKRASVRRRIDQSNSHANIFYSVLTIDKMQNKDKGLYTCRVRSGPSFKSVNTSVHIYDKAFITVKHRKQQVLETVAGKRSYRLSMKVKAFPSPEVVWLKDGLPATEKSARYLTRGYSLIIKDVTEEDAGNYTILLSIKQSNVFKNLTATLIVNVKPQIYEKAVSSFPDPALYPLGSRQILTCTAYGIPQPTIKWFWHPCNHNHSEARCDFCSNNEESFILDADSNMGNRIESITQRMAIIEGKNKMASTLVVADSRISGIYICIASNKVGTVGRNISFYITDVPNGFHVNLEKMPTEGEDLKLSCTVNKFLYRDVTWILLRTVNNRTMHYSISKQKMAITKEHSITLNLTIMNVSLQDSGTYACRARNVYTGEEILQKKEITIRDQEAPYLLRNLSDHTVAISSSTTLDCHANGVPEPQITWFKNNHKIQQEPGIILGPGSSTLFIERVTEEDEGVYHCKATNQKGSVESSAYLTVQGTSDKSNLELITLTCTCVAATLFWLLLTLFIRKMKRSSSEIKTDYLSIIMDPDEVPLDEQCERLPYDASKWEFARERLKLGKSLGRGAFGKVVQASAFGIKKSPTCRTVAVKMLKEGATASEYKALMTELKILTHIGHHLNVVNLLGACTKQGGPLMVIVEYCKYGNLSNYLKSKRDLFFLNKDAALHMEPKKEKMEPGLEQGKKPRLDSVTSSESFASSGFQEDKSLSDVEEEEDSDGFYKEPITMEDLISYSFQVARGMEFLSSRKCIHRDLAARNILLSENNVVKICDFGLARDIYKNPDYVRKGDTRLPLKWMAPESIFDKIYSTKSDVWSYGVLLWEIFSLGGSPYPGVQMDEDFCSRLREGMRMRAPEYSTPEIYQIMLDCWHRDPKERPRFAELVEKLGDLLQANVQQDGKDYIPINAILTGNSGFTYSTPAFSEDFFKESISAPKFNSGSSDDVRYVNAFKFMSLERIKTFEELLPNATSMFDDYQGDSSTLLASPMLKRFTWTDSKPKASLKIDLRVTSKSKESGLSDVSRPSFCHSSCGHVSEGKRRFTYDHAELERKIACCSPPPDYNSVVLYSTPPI
T1 sequence (P00533 whole entry): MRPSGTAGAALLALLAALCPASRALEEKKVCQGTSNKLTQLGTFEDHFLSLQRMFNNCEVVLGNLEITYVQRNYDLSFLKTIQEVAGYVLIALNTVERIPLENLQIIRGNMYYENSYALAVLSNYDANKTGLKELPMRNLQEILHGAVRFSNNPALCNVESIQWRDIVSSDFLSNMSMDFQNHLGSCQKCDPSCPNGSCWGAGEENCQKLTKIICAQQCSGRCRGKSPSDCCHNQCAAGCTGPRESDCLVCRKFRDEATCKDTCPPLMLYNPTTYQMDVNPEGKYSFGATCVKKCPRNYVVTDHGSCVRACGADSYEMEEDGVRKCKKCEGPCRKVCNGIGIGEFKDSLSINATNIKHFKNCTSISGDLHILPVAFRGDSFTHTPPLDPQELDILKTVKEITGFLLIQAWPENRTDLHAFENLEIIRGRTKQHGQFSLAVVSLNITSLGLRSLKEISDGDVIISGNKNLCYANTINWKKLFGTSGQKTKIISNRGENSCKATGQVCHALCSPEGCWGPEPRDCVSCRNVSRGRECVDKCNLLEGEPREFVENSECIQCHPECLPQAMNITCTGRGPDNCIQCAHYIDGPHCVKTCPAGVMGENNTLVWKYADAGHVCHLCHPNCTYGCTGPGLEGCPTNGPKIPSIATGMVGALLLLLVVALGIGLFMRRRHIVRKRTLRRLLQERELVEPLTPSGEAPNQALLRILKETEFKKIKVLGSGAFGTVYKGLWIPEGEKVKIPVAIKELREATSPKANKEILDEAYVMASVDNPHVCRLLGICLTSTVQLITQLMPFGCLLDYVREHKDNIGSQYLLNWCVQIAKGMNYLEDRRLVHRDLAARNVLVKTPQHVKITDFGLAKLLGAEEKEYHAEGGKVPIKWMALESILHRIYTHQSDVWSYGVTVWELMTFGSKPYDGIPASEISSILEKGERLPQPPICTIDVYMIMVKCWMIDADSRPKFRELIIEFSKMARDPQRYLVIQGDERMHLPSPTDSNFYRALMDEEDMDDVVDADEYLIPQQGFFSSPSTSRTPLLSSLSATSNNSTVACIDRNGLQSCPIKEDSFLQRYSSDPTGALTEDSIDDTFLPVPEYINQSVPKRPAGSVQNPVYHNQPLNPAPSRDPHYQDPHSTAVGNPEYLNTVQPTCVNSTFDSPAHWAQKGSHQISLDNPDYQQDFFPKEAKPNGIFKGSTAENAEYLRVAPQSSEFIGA

Structure (SMILES) | IC50 [1] | IC50 [2] | IC50 [3] | IC50 [4] | IC50 [5] | IC50 [6] | IC50 [7] | IC50 [8]
c1ccc(CCc2cc3c(Nc4ccc5[nH]ccc5c4)ncnc3[nH]2)cc1 | 104 µM | 56.1 µM | 224 µM | 31.6 µM | – | – | – | –
Fc1ccc(Nc2ncnc3[nH]c(CCc4ccccc4)cc23)cc1Br | 192 µM | > 200 µM | > 200 µM | 25.2 µM | > 500 µM | – | – | –
Fc1cc(Cl)ccc1Nc1ncnc2[nH]c(CCc3ccccc3)cc12 | > 500 µM | > 200 µM | > 200 µM | 40.5 µM | – | – | – | –
Nc1nc(Nc2ccc(F)c(Br)c2)c2cc(CCc3ccccc3)[nH]c2n1 | – | – | – | – | – | 22.8 µM | 132 µM | –
C#Cc1cccc(Nc2ncnc3[nH]c(CCc4ccccc4)cc23)c1 | > 500 µM | > 200 µM | 142 µM | 49.4 µM | > 500 µM | – | – | –
Fc1ccc(Nc2ncnc3[nH]c(CCc4ccccc4)cc23)cc1C(F)(F)F | > 500 µM | > 200 µM | 164 µM | 57.5 µM | > 500 µM | – | – | –
Brc1cccc(Nc2ncnc3[nH]c(CCc4ccccc4)cc23)c1 | 8.5 µM | > 200 µM | 129 µM | 112 µM | > 500 µM | – | – | –
FC(F)(F)c1cccc(Nc2ncnc3[nH]c(CCc4ccccc4)cc23)c1 | > 500 µM | > 200 µM | > 200 µM | 22.1 µM | > 500 µM | – | – | –
Nc1nc(Nc2cccc(Br)c2)c2cc(CCc3ccccc3)[nH]c2n1 | – | – | – | – | – | – | – | 19.5 µM
